# Laboratory results as given in US20060281726A1, “Piperidine derivatives for the treatment of chemokine or h1 mediated disease state” (priority 2003, published 2006).
# Molecular target: T1, human H1 receptor (Homo sapiens, UniProt P35367)
# T1 construct: purchased Euroscreen SA, Brussels, Belgium ES-390-M; host or cells: CHO-K1
# Assay: Histamine H1 receptor binding, competition displacement of [3H]-pyrilamine
# Conditions: displacement of 1 nM [3H]-pyrilamine; membranes from recombinant CHO-K1 cells expressing the human H1 receptor; 1 hour at room temperature; read-out: H1 pKi/[1328_S] (converted)
# Method: Histamine H1 receptor binding activity of compounds of the invention was assessed by competition displacement of 1 nM [3H]-pyrilamine (Amersham, Bucks, Product code TRK 608, specific activity 30 Ci/mmol) to 2 μg membranes prepared from recombinant CHO-K1 cells expressing the human H1 receptor (Euroscreen SA, Brussels, Belgium, product code ES-390-M) in assay buffer (50 mM Tris pH 7.4 containing 2 mM MgCl2, 250 mM sucrose and 100 mM NaCl) for 1 hour at room temperature.
# T1 sequence (P35367 whole entry): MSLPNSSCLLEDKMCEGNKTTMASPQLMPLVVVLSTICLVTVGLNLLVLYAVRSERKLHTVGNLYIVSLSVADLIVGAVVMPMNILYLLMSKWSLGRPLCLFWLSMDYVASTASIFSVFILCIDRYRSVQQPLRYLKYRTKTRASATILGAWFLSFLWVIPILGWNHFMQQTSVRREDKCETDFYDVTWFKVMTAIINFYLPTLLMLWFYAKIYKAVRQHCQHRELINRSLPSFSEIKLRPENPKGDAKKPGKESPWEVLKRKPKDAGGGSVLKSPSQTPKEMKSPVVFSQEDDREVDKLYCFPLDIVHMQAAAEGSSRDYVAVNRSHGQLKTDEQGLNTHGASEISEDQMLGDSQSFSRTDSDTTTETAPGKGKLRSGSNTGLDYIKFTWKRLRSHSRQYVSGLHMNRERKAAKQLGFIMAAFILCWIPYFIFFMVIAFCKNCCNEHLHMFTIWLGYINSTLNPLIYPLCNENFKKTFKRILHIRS
row,Structure (SMILES),Ki [nM]
1,"O=C(O)c1ccccc1C(=O)N1CCC(CN2CCC(Oc3ccc(Cl)c(Cl)c3)CC2)CC1 [Example 1, 2-[[4-[[4-(3,4-dichlorophenoxy)-1-piperidinyl]methyl]-1-piperidinyl]carbonyl]-benzoic acid]",316
2,"Cc1c(Cl)ccc(OC2CCN(CC3CCN(C(=O)c4ccccc4C(=O)O)CC3)CC2)c1Cl [Example 2, 2-[[4-[[4-(2,4-Dichloro-3-methylphenoxy)-1-piperidinyl]methyl]-1-piperidinyl]carbonyl]-benzoic acid]",63.1

# Now from value to compound:
row,Ki [nM],Structure (SMILES)
1,200,"Cc1c(OC2CCN(CC3CCN(C(=O)c4ccccc4C(=O)O)CC3)CC2)ccc(Cl)c1Cl [Example 3, 2-[[4-[[4-(3,4-Dichloro-2-methylphenoxy)-1-piperidinyl]methyl]-1-piperidinyl]carbonyl]-benzoic acid]"
2,251,"O=C(O)Cc1ccccc1C(=O)N1CCC(CN2CCC(Oc3ccc(Cl)c(Cl)c3)CC2)CC1 [Example 12, 2-[[4-[[4-(3,4-dichlorophenoxy)-1-piperidinyl]methyl]-1-piperidinyl]carbonyl]-benzeneacetic acid]"
3,31.6,"CS(=O)(=O)c1cc(C(=O)N2CCC(CN3CCC(Oc4ccc(Cl)c(Cl)c4)CC3)CC2)ccc1O [Example 19, 4-[[4-(3,4-dichlorophenoxy)-1-piperidinyl]methyl]-1-[4-hydroxy-3-(methylsulfonyl)benzoyl]-piperidine]"
